Experimental data: patent US20180055844A1 (Celgene Corporation, priority 2011, published 2018)

Experiments:
Experiment in all cases: Activity against lenalidomide resistant cell lines
Assay type in all cases: cell-based
1051 = settings: 1051, n = 3
Experimental: (§1) The ability of compounds to effect the proliferation of MM cell lines was investigated in an in vitro study. Uptake of [^3H]-thymidine by H929 MM cells and 7-AAD uptake in several MM cell lines (H929, U266B1, Anbl-6, KMS-34, OPM-2, DF-15, DF15/R, CAG, MM1.S and LP-1) was measured as an indicator of cell proliferation. Cells were incubated in the presence of compounds for 72 hours ([^3H]-thymidine was included for the last 6 hours of the incubation period) or 5 days followed by 7-AAD uptake to measure and count viable cells.

H929 = settings: Homo sapiens, NCI-H929; H929, n = 3
Experimental: as §1

1053 = settings: 1053, n = 3
Experimental: as §1

1054 = settings: 1054, n = 3
Experimental: as §1

D1 = settings: D1, n = 3
Experimental: as §1

1052 = settings: 1052, n = 3
Experimental: as §1

IC50 1051: No IC50
IC50 (H929): 12.6 µM
IC50 1053: No IC50
IC50 1054: No IC50
IC50 (D1): No IC50
IC50 1052: No IC50
Compound: Nc1cccc2c1CN(C1CCC(=O)NC1=O)C2=O (stereo not drawn) [Lenolidomide, Lenalidomide, reference compound]
